From patent US9409966B2, “Glucagon-like peptide-1 derivatives and their pharmaceutical use” (priority 2007, dated 2016) come the findings set out here.

For one experiment, the target named is T1, human GLP-1 receptor (Homo sapiens, UniProt P43220).
T1 construct: expressed in transfected cells; host or cells: BHK467-12A (tk-ts13) baby hamster kidney cells; purified plasma membranes
The experiment in a line: Stimulation of cAMP formation in a cell line expressing the cloned human GLP-1 receptor. In kind it is biochemical. As to conditions: cAMP production, purified plasma membranes from BHK467-12A (tk-ts13), AlphaScreen cAMP Assay Kit; read-out: Potency [EC50/nM]. In general terms: Cyclic AMP is a second messenger, typically raised through Gs and lowered through Gi signalling.

The target in experiment [1] is human serum albumin (HSA) (Homo sapiens, UniProt P02768). The experiment can be described thus: Albumin binding affinity, competition scintillation proximity assay (SPA). (In general: SPA uses beads or plates that emit light when radiolabelled molecules are held near them.)
Protocol: Streptavidin-SPA beads (GE Healthcare RPNQ0009) were incubated with biotinylated HSA for 5 hours. The beads were washed with buffer to remove unbound HSA. […] After 20 hours of gentle rocking at room temperature the plates were centrifuged and counted on a TopCounter.

*1 amine or outer side, *2 acyl side, *3 side chain or, on linkers, in order; H or OH if unused. Where a SMILES comes first, the peptide text is derived from it. Side-chain parts run from the residue outwards. [ ]: non-standard residue; d: D form. The star is where a group is joined. X1 = O=C(CCCCCCCCCCCCCCCc1nnn[nH]1)NS(=O)(=O)CCCC(=O)*; C20 diacid = O=C(O)CCCCCCCCCCCCCCCCCCC(=O)*; γGlu = O=C(O)[C@H](CCC(=O)[*:2])N[*:1]; Desaminohistidyl = O=C(CCc1c[nH]cn1)*; βAsp = O=C(O)[C@H](CC(=O)[*:2])N[*:1]; Trx = NC[C@H]1CC[C@H](C(=O)O)CC1; 12Ado = NCCCCCCCCCCCC(=O)O; AEEA = NCCOCCOCC(=O)O; Aib = CC(C)(N)C(=O)O; Inp = O=C(O)C1CCNCC1

Chain of human serum albumin (HSA) (P02768 25-609): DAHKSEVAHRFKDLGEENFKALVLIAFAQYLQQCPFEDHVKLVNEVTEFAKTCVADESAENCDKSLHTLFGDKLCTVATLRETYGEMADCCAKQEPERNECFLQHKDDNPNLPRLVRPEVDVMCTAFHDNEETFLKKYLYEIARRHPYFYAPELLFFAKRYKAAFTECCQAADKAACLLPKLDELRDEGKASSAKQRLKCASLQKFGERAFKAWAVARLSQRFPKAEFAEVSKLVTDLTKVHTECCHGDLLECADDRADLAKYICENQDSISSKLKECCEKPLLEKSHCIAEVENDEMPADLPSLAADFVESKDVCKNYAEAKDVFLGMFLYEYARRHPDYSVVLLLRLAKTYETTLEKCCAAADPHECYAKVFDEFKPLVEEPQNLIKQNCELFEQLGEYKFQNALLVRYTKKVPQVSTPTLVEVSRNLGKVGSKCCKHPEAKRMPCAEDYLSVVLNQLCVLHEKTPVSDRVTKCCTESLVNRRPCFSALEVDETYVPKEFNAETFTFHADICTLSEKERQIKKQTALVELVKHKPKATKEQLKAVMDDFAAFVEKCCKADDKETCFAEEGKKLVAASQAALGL
T1 sequence (P43220 24-463): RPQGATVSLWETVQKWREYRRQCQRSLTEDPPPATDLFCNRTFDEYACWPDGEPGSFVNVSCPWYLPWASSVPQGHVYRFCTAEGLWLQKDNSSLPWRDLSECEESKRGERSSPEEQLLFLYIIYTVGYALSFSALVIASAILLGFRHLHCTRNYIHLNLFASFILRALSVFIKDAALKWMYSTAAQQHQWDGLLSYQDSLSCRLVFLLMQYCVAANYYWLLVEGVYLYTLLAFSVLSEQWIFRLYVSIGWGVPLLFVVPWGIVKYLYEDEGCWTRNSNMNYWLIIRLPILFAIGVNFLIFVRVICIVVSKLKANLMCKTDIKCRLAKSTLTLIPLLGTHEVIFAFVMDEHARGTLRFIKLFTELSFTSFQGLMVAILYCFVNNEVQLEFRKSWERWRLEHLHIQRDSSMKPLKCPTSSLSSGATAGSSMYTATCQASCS
Protocol for human GLP-1 receptor: A stable transfected cell line has been prepared at NN A/S, Denmark, and a high expressing clone was selected for screening. The cells were grown at 5% CO2 in DMEM, 5% FCS, 1% Pen/Strep (Penicillin/Streptomycin) and 0.5 mg/ml of the selection marker G418.
Cells at approximate 80% confluence were washed 2× with PBS (Phosphate Buffered Saline) and harvested with Versene (aqueous solution of the tetrasodium salt of ethylenediaminetetraacetic acid), centrifuged 5 min at 1000 rpm and the supernatant removed. The additional steps were all made on ice. […] Suspension in Buffer 2, homogenization and centrifugation was repeated once and the membranes were resuspended in Buffer 2 and ready for further analysis or stored at −80° C.
The functional receptor assay was carried out by measuring the peptide induced cAMP production by The AlphaScreen Technology. […] The capture of cAMP is achieved by using a specific antibody conjugated to acceptor beads. Formed cAMP was counted and measured at a AlphaFusion Microplate Analyzer. The EC50 values were calculated using the Graph-Pad Prisme software (version 5).

`CC[C@H](C)[C@H](NC(=O)[C@H](Cc1ccccc1)NC(=O)[C@H](CCC(=O)O)NC(=O)[C@H](CCCNC(=N)N)NC(=O)[C@H](C)NC(=O)[C@H](C)NC(=O)[C@H](CCC(N)=O)NC(=O)[C@H](CCC(=O)O)NC(=O)[C@H](CCC(=O)O)NC(=O)[C@H](CCCCNC(=O)COCCOCCNC(=O)CC[C@H](NC(=O)CC[C@H](NC(=O)CCCCCCCCCCCNC(=O)CCCS(=O)(=O)NC(=O)CCCCCCCCCCCCCCCc1nnn[nH]1)C(=O)O)C(=O)O)NC(=O)[C@H](Cc1ccc(O)cc1)NC(=O)[C@H](CO)NC(=O)[C@H](CO)NC(=O)[C@@H](NC(=O)[C@H](CC(=O)O)NC(=O)[C@H](CO)NC(=O)[C@@H](NC(=O)[C@H](Cc1ccccc1)NC(=O)[C@@H](NC(=O)CNC(=O)[C@H](CCC(=O)O)NC(=O)C(C)(C)NC(=O)[C@@H](N)Cc1c[nH]cn1)[C@@H](C)O)[C@@H](C)O)C(C)C)C(=O)N[C@@H](CCC(=O)O)C(=O)N[C@@H](Cc1c[nH]c2ccccc12)C(=O)N[C@@H](CC(C)C)C(=O)N[C@H](C(=O)N[C@@H](CCCCN)C(=O)NCC(=O)N[C@@H](CCCNC(=N)N)C(=O)N1CCC[C@H]1C(N)=O)C(C)C` [Example 11, N-epsilon20-[2-(2-{2-[(S)-4-Carboxy-4-((S)-4-carboxy-4-{12-[4-(16-(1H-tetrazol-5-yl)hexadecanoylsulfamoyl)butyrylamino]dodecanoylamino}butyrylamino)butyrylamino]ethoxy}ethoxy)acetyl][Aib8,Lys20,Glu22,Arg26,Glu30,Pro37]GLP-1-(7-37)amide] (H-H[Aib]EGTFTSDVSSYK([AEEA-γGlu-γGlu-12Ado-X1])EEQAAREFIEWLVKGRP-NH2): the EC50 was 0.61 nM at human GLP-1 receptor and 1 to 100 nM in experiment [1]. The corresponding values for `CC[C@H](C)[C@H](NC(=O)[C@H](Cc1ccccc1)NC(=O)[C@H](CCC(=O)O)NC(=O)[C@H](CCCNC(=N)N)NC(=O)[C@H](C)NC(=O)[C@H](C)NC(=O)[C@H](CCC(N)=O)NC(=O)[C@H](CCC(=O)O)NC(=O)[C@H](CCC(=O)O)NC(=O)[C@H](CC(C)C)NC(=O)[C@H](Cc1ccc(O)cc1)NC(=O)[C@H](CO)NC(=O)[C@H](CO)NC(=O)[C@@H](NC(=O)[C@H](CC(=O)O)NC(=O)[C@H](CO)NC(=O)[C@@H](NC(=O)[C@H](Cc1ccccc1)NC(=O)[C@@H](NC(=O)CNC(=O)[C@H](CCC(=O)O)NC(=O)C(C)(C)NC(=O)[C@@H](N)Cc1c[nH]cn1)[C@@H](C)O)[C@@H](C)O)C(C)C)C(=O)N[C@@H](C)C(=O)N[C@@H](CCCCNC(=O)COCCOCCNC(=O)COCCOCCNC(=O)C[C@H](NC(=O)C1CCN(C(=O)CCCCCCCCCCCCCCCCCCC(=O)O)CC1)C(=O)O)C(=O)N[C@@H](CC(C)C)C(=O)N[C@H](C(=O)N[C@@H](CCCCN)C(=O)NCC(=O)N[C@@H](CCCNC(=N)N)C(=O)NCC(=O)O)C(C)C` [Example 5, N-epsilon31{2-[2-(2-{2-[2-((S)-3-carboxy-3-{[1-(19-carboxynonadecanoyl)piperidine-4-carbonyl]amino}propionylamino)ethoxy]ethoxy}acetylamino)ethoxy]ethoxy}acetyl [Aib8,Glu22,Arg26,Lys31]GLP-1-(7-37)] (H-H[Aib]EGTFTSDVSSYLEEQAAREFIAK([AEEA-AEEA-βAsp-Inp-C20 diacid])LVKGRG-OH) are 0.2 nM and 100 to 150 nM.

As to `CC[C@H](C)[C@H](NC(=O)[C@H](Cc1ccccc1)NC(=O)[C@H](CCC(=O)O)NC(=O)[C@H](CCCNC(=N)N)NC(=O)[C@H](C)NC(=O)[C@H](C)NC(=O)[C@H](CCC(N)=O)NC(=O)[C@H](CCC(=O)O)NC(=O)[C@H](CCC(=O)O)NC(=O)[C@H](CC(C)C)NC(=O)[C@H](Cc1ccc(O)cc1)NC(=O)[C@H](CO)NC(=O)[C@H](CO)NC(=O)[C@@H](NC(=O)[C@H](CC(=O)O)NC(=O)[C@H](CO)NC(=O)[C@@H](NC(=O)[C@H](Cc1ccccc1)NC(=O)[C@@H](NC(=O)CNC(=O)[C@H](CCC(=O)O)NC(=O)[C@H](C)NC(=O)CCc1c[nH]cn1)[C@@H](C)O)[C@@H](C)O)C(C)C)C(=O)N[C@@H](C)C(=O)N[C@@H](Cc1c[nH]c2ccccc12)C(=O)N[C@@H](CC(C)C)C(=O)N[C@H](C(=O)N[C@@H](CCCNC(=N)N)C(=O)NCC(=O)N[C@@H](CCCNC(=N)N)C(=O)N[C@@H](CCCCNC(=O)COCCOCCNC(=O)CC[C@H](NC(=O)CC[C@H](NC(=O)CC[C@H](NC(=O)CCCCCCCCCCCCCCCCCCC(=O)O)C(=O)O)C(=O)O)C(=O)O)C(=O)O)C(C)C` [Example 25, N-epsilon37-(2-{2-[2-((S)-4-Carboxy-4-{(S)-4-carboxy-4-[(S)-4-carboxy-4-(19-carboxy-nonadecanoylamino)butyrylamino]butyrylamino}butyrylamino)ethoxy]ethoxy}acetyl)[DesaminoHis7,Glu22,Arg26,Arg34,Lys37]GLP-1-(7-37)], the values for the EC50 (on human GLP-1 receptor; in experiment [1]) were 0.36 nM and 150 to 200 nM, respectively. For `CC[C@H](C)[C@H](NC(=O)[C@H](Cc1ccccc1)NC(=O)[C@H](CCC(=O)O)NC(=O)[C@H](CCCNC(=N)N)NC(=O)[C@H](C)NC(=O)[C@H](C)NC(=O)[C@H](CCC(N)=O)NC(=O)[C@H](CCC(=O)O)NC(=O)[C@H](CCC(=O)O)NC(=O)[C@H](CC(C)C)NC(=O)[C@H](Cc1ccc(O)cc1)NC(=O)[C@H](CO)NC(=O)[C@H](CO)NC(=O)[C@@H](NC(=O)[C@H](CC(=O)O)NC(=O)[C@H](CO)NC(=O)[C@@H](NC(=O)[C@H](Cc1ccccc1)NC(=O)[C@@H](NC(=O)CNC(=O)[C@H](CCC(=O)O)NC(=O)[C@H](C)NC(=O)CCc1c[nH]cn1)[C@@H](C)O)[C@@H](C)O)C(C)C)C(=O)N[C@@H](CCC(=O)O)C(=O)N[C@@H](Cc1c[nH]c2ccccc12)C(=O)N[C@@H](CC(C)C)C(=O)N[C@H](C(=O)N[C@@H](CCCNC(=N)N)C(=O)NCC(=O)N[C@@H](CCCNC(=N)N)C(=O)N[C@@H](CCCCNC(=O)COCCOCCNC(=O)COCCOCCNC(=O)CC[C@H](NC(=O)[C@H]1CC[C@H](CNC(=O)CCCCCCCCCCCCCCCCCCC(=O)O)CC1)C(=O)O)C(=O)O)C(C)C` [Example 10, N-epsilon37-[2-(2-{2-[2-(2-{2-[(S)-4-Carboxy-4-({trans-4-[(19-carboxy-nonadecanoylamino)methyl]cyclohexanecarbonyl}amino)butyrylamino]ethoxy}ethoxy)acetylamino]ethoxy}ethoxy)acetyl][DesaminoHis7,Glu22,Arg26,Glu30,Arg34,Lys37]GLP-1-(7-37)] (Desaminohistidyl-AEGTFTSDVSSYLEEQAAREFIEWLVRGRK([AEEA-AEEA-γGlu-Trx-C20 diacid])-OH), at human GLP-1 receptor, the EC50 was determined as 0.66 nM. The same measure, in the same setting: as for `CCCCCCCCCCCCCCCCCC(=O)NCCOCCOCC(=O)NCCOCCOCC(=O)NCCOCCOCC(=O)NCCCC[C@H](NC(=O)[C@H](CCCNC(=N)N)NC(=O)CNC(=O)[C@H](CCCNC(=N)N)NC(=O)[C@@H](NC(=O)[C@H](CC(C)C)NC(=O)[C@H](Cc1c[nH]c2ccccc12)NC(=O)[C@H](C)NC(=O)[C@@H](NC(=O)[C@H](Cc1ccccc1)NC(=O)[C@H](CCC(=O)O)NC(=O)[C@H](CCCNC(=N)N)NC(=O)[C@H](C)NC(=O)[C@H](C)NC(=O)[C@H](CCC(N)=O)NC(=O)[C@H](CCC(=O)O)NC(=O)[C@H](CCC(=O)O)NC(=O)[C@H](CC(C)C)NC(=O)[C@H](Cc1ccc(O)cc1)NC(=O)[C@H](CO)NC(=O)[C@H](CO)NC(=O)[C@@H](NC(=O)[C@H](CC(=O)O)NC(=O)[C@H](CO)NC(=O)[C@@H](NC(=O)[C@H](Cc1ccccc1)NC(=O)[C@@H](NC(=O)CNC(=O)[C@H](CCC(=O)O)NC(=O)[C@H](C)NC(=O)CCc1c[nH]cn1)[C@@H](C)O)[C@@H](C)O)C(C)C)[C@@H](C)CC)C(C)C)C(N)=O` [Example 19, N-epsilon37-(2-(2-(2-(2-(2-(2-(2-(2-(2-(Octadecanoylamino)ethoxy)ethoxy)acetylamino)ethoxy)ethoxy)acetylamino)ethoxy)ethoxy)acetyl)[desaminoHis7,Glu22,Arg26,Arg34,Lys37] GLP-1 (7-37)amide], the figure is 0.05 nM; as for `CCCCCCCCCCCCCCCCOCCOCCOCCOCCOCCOCCC(=O)NCCCC[C@H](NC(=O)[C@H](CCCNC(=N)N)NC(=O)CNC(=O)[C@H](CCCNC(=N)N)NC(=O)[C@@H](NC(=O)[C@H](CC(C)C)NC(=O)[C@H](Cc1c[nH]c2ccccc12)NC(=O)[C@H](C)NC(=O)[C@@H](NC(=O)[C@H](Cc1ccccc1)NC(=O)[C@H](CCC(=O)O)NC(=O)[C@H](CCCNC(=N)N)NC(=O)[C@H](C)NC(=O)[C@H](C)NC(=O)[C@H](CCC(N)=O)NC(=O)[C@H](CCC(=O)O)NC(=O)[C@H](CCC(=O)O)NC(=O)[C@H](CC(C)C)NC(=O)[C@H](Cc1ccc(O)cc1)NC(=O)[C@H](CO)NC(=O)[C@H](CO)NC(=O)[C@@H](NC(=O)[C@H](CC(=O)O)NC(=O)[C@H](CO)NC(=O)[C@@H](NC(=O)[C@H](Cc1ccccc1)NC(=O)[C@@H](NC(=O)CNC(=O)[C@H](CCC(=O)O)NC(=O)[C@H](C)NC(=O)CCc1c[nH]cn1)[C@@H](C)O)[C@@H](C)O)C(C)C)[C@@H](C)CC)C(C)C)C(N)=O` [Example 16, N-epsilon37 (3-((2-(2-(2-(2-(2-Hexadecyloxyethoxy)ethoxy)ethoxy)ethoxy)ethoxy))propionyl)[DesaminoHis7,Glu22,Arg26,Arg34,Lys37]GLP-1(7-37)-amide], 0.15 nM.
